Here are results for 20 compounds from US20260224571A1, “AZACYCLOALKANE COMPOUND AND PHARMACEUTICAL COMPOSITION, AND USE THEREOF” (Prime Gene Therapeutics Co., Ltd., priority 2023, published 2026).

The subject of assay [1] is phosphorylation of myosin light chain T18/S19. Nature of the assay: In Cell Western for phosphorylation of myosin light chain in A7r5 cells. To be noted: rat smooth muscle cell line A7r5, 1 hour with compound, phospho-MLC-T18/S19; read-out: cellular activity IC50. In kind it is cell-based. An excerpt:
The rat smooth muscle cell line A7r5 was used, and the A7r5 cell culture conditions were DMEM containing 10% FBS. Phspho-MLC-T18/S19 specific antibody and a second detection antibody were used to detect the phosphorylation level of myosin light chain by In Cell Western. Cells treated with positive compounds were used as positive controls, while the group without compounds but with compound solvents was used as negative controls. DRAQ5 stained cell nuclei were used as internal references. GraphPad Prism 7.0 software was used, and fitting was carried out by using a non-linear regression curve with varying slopes to determine the absolute IC50 value.
On the first day, A7r5 cells were resuspended in serum-free medium and seeded into 384 wells of PDL coated transparent black plates at a density of 5000 cells per well. Serum starvation culture was performed for 4 hours, and the cells were incubated with the compound in serum-free medium for 1 hour. 50 μL of 8% PFA (polyformaldehyde) was added to each well and fixed at room temperature for 1 hour. The liquid in the wells was discard and 90 μL of ice methanol was added to each well to permeabilize the cells at 4° C. for 1 hour. Then, PBST (0.1% Tween20-PBS) was added using an automatic separator to wash three times. After patting the plate for drying, 50 μL blocking solution was added to each well for sealing at room temperature for 1 hour. The phspho-MLC-T18/S19 specific antibody was diluted with the blocking solution at a ratio of 1:200. After adding 20 μL to each well, incubation was carried out overnight at 4° C. with a sealed film.
On the second day, the liquid in the wells was discarded and PBST was added using an automatic separator to wash the plate 5 times. After patting the plate for drying, the second detection antibody was diluted with blocking solution at a ratio of 1:800 and DRAQ5 at a ratio of 1:1000. After adding 20 μL to each well, incubation was carried out at room temperature for 1 hour. Then, the liquid in the wells was discarded and PBST was added using an automatic separator to wash the plate 3 times, followed by adding ddH2O to wash the plate 3 times. After patting the plate for drying, it was scanned using a LICOR Odyssey near-infrared imaging scanner.

The target of the next assay is ROCK2 (Homo sapiens, UniProt O75116). The assay can be described thus: ROCK2 kinase enzymatic activity (HTRF, STK2 substrate). The format is biochemical. To be noted: ROCK2 kinase reacted at room temperature for 30 minutes. The text has this:
(§1) The kinase activity data was expressed by comparing the kinase activity of the test compound and that of the blank group (containing only DMSO), and the IC50 value was obtained by curve fitting using Prism software (GraphPad7.0).
For orientation: In TR-FRET formats the signal depends on donor and acceptor labels being close together.

The next assay concerns the target ROCK1 (Homo sapiens, UniProt Q13464). The assay can be described thus: ROCK1 kinase enzymatic activity (HTRF, STK2 substrate). The format is biochemical. As to conditions: ROCK1 kinase reacted at room temperature for 20 minutes.
Excerpt: as §1

Structures can show the parent of a compound that is named as a salt.

Chain of ROCK2 (O75116 whole entry): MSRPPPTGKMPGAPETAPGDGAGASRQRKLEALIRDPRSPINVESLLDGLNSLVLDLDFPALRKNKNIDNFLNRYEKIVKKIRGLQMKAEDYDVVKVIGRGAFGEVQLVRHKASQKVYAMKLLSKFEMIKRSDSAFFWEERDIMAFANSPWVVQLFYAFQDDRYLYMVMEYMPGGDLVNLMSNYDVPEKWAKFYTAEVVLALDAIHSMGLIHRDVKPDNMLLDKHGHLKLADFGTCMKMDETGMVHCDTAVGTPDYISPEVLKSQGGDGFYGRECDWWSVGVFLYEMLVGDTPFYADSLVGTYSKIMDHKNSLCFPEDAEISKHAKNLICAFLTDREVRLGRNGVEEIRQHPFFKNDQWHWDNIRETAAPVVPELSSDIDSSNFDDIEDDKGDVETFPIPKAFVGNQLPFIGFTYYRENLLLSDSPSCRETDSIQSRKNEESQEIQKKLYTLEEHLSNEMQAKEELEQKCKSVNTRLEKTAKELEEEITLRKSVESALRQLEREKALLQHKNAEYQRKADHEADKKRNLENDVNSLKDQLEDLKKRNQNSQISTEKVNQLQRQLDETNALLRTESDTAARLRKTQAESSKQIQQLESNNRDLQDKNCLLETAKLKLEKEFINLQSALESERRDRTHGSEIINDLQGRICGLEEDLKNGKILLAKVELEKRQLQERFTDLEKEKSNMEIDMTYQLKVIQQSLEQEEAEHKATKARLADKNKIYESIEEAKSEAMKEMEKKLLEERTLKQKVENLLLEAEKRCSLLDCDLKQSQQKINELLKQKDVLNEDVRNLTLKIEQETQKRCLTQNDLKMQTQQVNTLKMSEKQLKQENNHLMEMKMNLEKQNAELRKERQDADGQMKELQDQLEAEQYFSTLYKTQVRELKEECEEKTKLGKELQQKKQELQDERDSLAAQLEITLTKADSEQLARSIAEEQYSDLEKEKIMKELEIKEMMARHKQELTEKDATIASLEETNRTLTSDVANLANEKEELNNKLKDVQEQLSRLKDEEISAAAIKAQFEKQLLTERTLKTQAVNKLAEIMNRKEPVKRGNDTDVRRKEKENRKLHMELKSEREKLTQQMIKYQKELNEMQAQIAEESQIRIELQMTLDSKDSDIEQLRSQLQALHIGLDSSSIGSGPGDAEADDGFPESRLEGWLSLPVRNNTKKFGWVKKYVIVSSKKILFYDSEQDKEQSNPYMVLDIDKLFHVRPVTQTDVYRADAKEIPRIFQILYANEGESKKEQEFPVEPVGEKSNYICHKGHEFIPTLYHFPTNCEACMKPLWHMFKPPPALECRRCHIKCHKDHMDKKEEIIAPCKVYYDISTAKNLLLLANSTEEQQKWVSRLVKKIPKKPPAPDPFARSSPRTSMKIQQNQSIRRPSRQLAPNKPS
Chain of ROCK1 (Q13464 whole entry): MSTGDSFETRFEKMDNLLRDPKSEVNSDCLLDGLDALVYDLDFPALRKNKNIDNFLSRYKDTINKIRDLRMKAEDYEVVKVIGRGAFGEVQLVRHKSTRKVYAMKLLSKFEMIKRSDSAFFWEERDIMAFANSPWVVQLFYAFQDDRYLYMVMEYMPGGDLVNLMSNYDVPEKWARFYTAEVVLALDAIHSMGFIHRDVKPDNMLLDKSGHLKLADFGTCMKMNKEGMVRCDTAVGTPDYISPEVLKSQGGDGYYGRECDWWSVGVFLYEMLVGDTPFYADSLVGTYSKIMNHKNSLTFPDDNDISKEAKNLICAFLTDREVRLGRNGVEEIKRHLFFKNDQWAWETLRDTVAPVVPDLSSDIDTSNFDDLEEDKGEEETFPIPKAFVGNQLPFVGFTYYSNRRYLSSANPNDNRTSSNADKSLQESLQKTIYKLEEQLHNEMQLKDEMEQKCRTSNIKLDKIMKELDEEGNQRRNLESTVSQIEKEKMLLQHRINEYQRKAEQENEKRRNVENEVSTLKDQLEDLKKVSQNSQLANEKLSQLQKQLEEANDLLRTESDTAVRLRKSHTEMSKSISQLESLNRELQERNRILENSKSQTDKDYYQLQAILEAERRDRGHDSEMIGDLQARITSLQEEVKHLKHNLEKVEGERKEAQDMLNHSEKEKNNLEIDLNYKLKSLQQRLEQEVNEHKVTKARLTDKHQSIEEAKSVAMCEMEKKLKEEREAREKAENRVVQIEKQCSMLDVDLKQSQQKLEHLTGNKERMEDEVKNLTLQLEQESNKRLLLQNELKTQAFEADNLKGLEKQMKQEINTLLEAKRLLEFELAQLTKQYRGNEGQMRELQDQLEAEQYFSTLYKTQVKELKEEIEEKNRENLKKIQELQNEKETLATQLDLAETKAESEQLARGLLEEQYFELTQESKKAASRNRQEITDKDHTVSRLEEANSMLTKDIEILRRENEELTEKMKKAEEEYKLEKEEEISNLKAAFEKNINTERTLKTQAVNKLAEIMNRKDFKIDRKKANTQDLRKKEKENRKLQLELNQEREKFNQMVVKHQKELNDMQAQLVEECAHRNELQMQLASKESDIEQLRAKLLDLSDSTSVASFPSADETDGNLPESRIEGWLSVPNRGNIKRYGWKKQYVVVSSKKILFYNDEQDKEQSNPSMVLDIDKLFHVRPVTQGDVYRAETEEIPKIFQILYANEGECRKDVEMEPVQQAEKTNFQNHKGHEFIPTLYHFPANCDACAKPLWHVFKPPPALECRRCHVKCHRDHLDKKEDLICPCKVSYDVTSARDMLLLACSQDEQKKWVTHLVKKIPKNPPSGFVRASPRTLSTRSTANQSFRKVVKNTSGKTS

What is called IC50 is the concentration that inhibits the measured activity by half. As to `CC(=O)Nc1nn(C2(CC#N)CN(S(=O)(=O)C(F)(F)F)C2)cc1-c1ncnc2[nH]ccc12` [Example 5], the IC50 in assay [1] is 951 nM; against ROCK2, less than 5 nM; against ROCK1, less than 5 nM.

With `N#CCC1(n2cc(-c3ncnc4[nH]ccc34)c(N)n2)CN(S(=O)(=O)C(F)(F)F)C1` [Example 2, 2-(3-(3-amino-4-(7H-pyrrolo[2,3-d]pyrimidin-4-yl)-1H-pyrazol-1-yl)-1-((trifluoromethyl)sulfonyl)azetidine-3-yl)acetonitrile], the concentration for half-maximal inhibition (IC50) in assay [1] is 11 nM; at ROCK2, less than 5 nM; against ROCK1, less than 5 nM.

Consider `C[C@H](N)CS(=O)(=O)N1CC(CC#N)(n2cc(-c3ncnc4[nH]ccc34)c(N)n2)C1` [Example 87, (S)-2-(3-(3-amino-4-(7H-pyrrolo[2,3-d]pyrimidin-4-yl)-1H-pyrazol-1-yl)-1-((2-aminopropyl)sulfonyl)azetidine-3-yl)acetonitrile trifluoroacetate salt], for which the half-maximal inhibitory concentration (IC50) in assay [1] is 678 nM; on ROCK2 it was less than 5 nM; on ROCK1, less than 5 nM.

As for `N#CCC1(n2cc(-c3ncnc4[nH]ccc34)c(O)n2)CN(C(=O)NCC(F)(F)F)C1` [Example 55, 3-(cyanomethyl)-3-(3-hydroxyl-4-(7H-pyrrolo[2,3-d]pyrimidin-4-yl)-1H-pyrazol-1-yl)-N-(2,2,2-trifluoroethyl)azetidine-1-formamide], the concentration for half-maximal inhibition (IC50) was greater than 10000 nM in assay [1], greater than 100 nM against ROCK2 and less than 50 nM against ROCK1.

On to `CS(=O)(=O)CS(=O)(=O)N1CC(CC#N)(n2cc(-c3ncnc4[nH]ccc34)c(N)n2)C1` [Example 8], for which the values for the IC50 (in assay [1]; against ROCK2; against ROCK1) were 152 nM, less than 5 nM and less than 5 nM, respectively.

Turning to `N#CCC1(n2cc(-c3ncnc4[nH]ccc34)c(N)n2)CN(S(=O)(=O)CC(F)(F)F)C1` [Example 1, 2-(3-(3-amino-4-(7-H-pyrrolo[2,3-d]pyrimidin-4-yl)-1H-pyrazol-1-yl)-1-((2,2,2-trifluoroethyl)sulfonyl)azetidine-3-yl)acetonitrile], the IC50 in assay [1] was 5010 nM; against ROCK2, less than 10 nM; against ROCK1, less than 10 nM.

On to `N#CCC1(n2cc(-c3ncnc4[nH]ccc34)c(N)n2)CN(C(=O)[C@@H]2CC2(F)F)C1` [Example 34, (S)-2-(3-(3-amino-4-(7H-pyrrolo[2,3-d]pyrimidin-4-yl)-1H-pyrazol-1-yl)-1-(2,2-difluorocyclopropane-1-carbonyl)azetidine-3-yl)acetonitrile], for which the results for the IC50 (in assay [1]; against ROCK2; on ROCK1) were 551 nM, less than 10 nM and less than 10 nM, respectively.

Regarding `N#CCNC(=O)N1CC(CC#N)(n2cc(-c3ncnc4[nH]ccc34)c(N)n2)C1` [Example 18, 3-(3-amino-4-(7H-pyrrolo[2,3-d]pyrimidin-4-yl)-1H-pyrazol-1-yl)-N,3-bis(cyanomethyl)azetidine-1-formamide], the IC50 in assay [1] was 4110 nM; against ROCK2, less than 5 nM; at ROCK1, less than 5 nM.

Turning to `CNC(=O)c1nn(C2(CC#N)CN(S(=O)(=O)CC(F)(F)F)C2)cc1-c1ncnc2[nH]ccc12` [Example 62, 1-(3-(cyanomethyl)-1-((2,2,2-trifluoroethyl)sulfonyl)azetidine-3-yl)-N-methyl-4-(7H-pyrrolo[2,3-d]pyrimidin-4-yl)-1H-pyrazol-3-formamide], the IC50 in assay [1] is greater than 10000 nM; against ROCK2, greater than 100 nM; against ROCK1 it was greater than 100 nM.

For `CN=S(C)(=O)N1CC(CC#N)(n2cc(-c3ncnc4[nH]ccc34)c(N)n2)C1` (stereo not drawn) [Example 37, 2-(3-(3-amino-4-(7H-pyrrolo[2,3-d]pyrimidin-4-yl)-1H-pyrazol-1-yl)-1-(N,S-dimethylsulfonylimino)azetidine-3-yl)acetonitrile], the IC50 in assay [1] is 1590 nM; on ROCK2 it was less than 50 nM; at ROCK1, less than 50 nM.

For the compound `CS(=O)(=O)N1CCC(CC#N)(n2cc(-c3ncnc4[nH]ccc34)c(N)n2)C1` (stereo not drawn) [Example 3, 2-(3-(3-amino-4-(7H-pyrrolo[2,3-d]pyrimidin-4-yl)-1H-pyrazol-1-yl)-1-(methylsulfonyl)pyrrolidin-3-yl)acetonitrile], the IC50 in assay [1] is 178 nM; against ROCK2, less than 5 nM; on ROCK1, less than 5 nM.

Consider `CN(C)CCNc1nn(C2(CC#N)CN(S(=O)(=O)C(F)(F)F)C2)cc1-c1ncnc2[nH]ccc12` [Example 7, 2-(3-(3-((2-(dimethylamino)ethyl)amino)-4-(7H-pyrrolo[2,3-d]pyrimidin-4-yl)-1H-pyrazol-1-yl)-1-((trifluoromethyl)sulfonyl)azetidine-3-yl)acetonitrile], for which the 50% inhibitory concentration (IC50) in assay [1] was 132 nM; at ROCK2, less than 5 nM; on ROCK1, less than 5 nM.

`Cc1ccc(C(=O)OCc2ccc([C@@H](CN)C(=O)Nc3ccc4cnccc4c3)cc2)c(C)c1` [Netarsudil, reference compound]: the half-inhibitory concentration (IC50) in assay [1] was 288 nM.

As for `N#CCC1(n2cc(-c3ncnc4[nH]ccc34)c(N)n2)CN(C(=O)CC(F)(F)F)C1` [Example 30], the IC50 against ROCK2 was less than 10 nM; against ROCK1 it was less than 5 nM.

As to `CCS(=O)(=O)N1CC(CC#N)(n2cc(-c3ncnc4[nH]ccc34)c(O)n2)C1` [Example 56, 2-(1-(ethylsulfonyl)-3-(3-hydroxy-4-(7H-pyrrolo[2,3-d]pyrimidin-4-yl)-1H-pyrazol-1-yl)azetidine-3-yl)acetonitrile], the IC50 on ROCK2 was greater than 100 nM; on ROCK1, less than 50 nM.

With `N#CCC1(n2cc(-c3ncnc4[nH]ccc34)c(C(N)=O)n2)CN(S(=O)(=O)C2CC2)C1` [Example 67, 1-(3-(cyanomethyl)-1-(cyclopropylsulfonyl)azetidine-3-yl)-4-(7H-pyrrolo[2,3-d]pyrimidin-4-yl)-1H-pyrazol-3-formamide], the IC50 on ROCK2 and against ROCK1 was greater than 100 nM throughout.

Take `N#CCC1(n2cc(-c3ncnc4[nH]ccc34)c(N)n2)CN(C(=O)NCCO)C1` [Example 17, 3-(3-amino-4-(7H-pyrrolo[2,3-d]pyrimidin-4-yl)-1H-pyrazol-1-yl)-3-(cyanomethyl)-N-(2-hydroxyethyl)azetidine-1-formamide]: the IC50 at ROCK2 and on ROCK1 was less than 50 nM each time.

For the compound `CNC(=O)N1CC(CC#N)(n2cc(-c3ncnc4[nH]ccc34)c(N)n2)C1` [Example 10, 3-(3-amino-4-{7H-pyrrolo[2,3-d]pyrimidin-4-yl}pyrazol-1-yl)-3-(cyanomethyl)-N-methylazetidine-1-formamide], the half-maximal inhibitory concentration (IC50) against ROCK2 and against ROCK1 was less than 5 nM each time.

Turning to `CCS(=O)(=O)N1CC(CC#N)(n2cc(-c3cc(Cl)nc4ccnn34)c(N)n2)C1` [Example 84, 2-(3-(3-amino-4-(5-chloropyrazolo[1,5-a]pyrimidin-7-yl)-1H-pyrazol-1-yl)-1-(ethylsulfonyl)azetidine-3-yl)acetonitrile], the half-maximal inhibitory concentration (IC50) on ROCK2 and against ROCK1 was greater than 100 nM in each case.

As for `CS(=O)(=O)N1CC(CC#N)(n2cc(-c3ncnc(NCCO)n3)c(N)n2)C1` [Example 70, 2-(3-(3-amino-4-(4-((2-hydroxyethyl)amino)-1,3,5-triazin-2-yl)-1H-pyrazol-1-yl)-1-(methylsulfonyl)azetidine-3-yl)acetonitrile], the concentration for half-maximal inhibition (IC50) against ROCK2 and against ROCK1 was greater than 100 nM in each case.
